The nature of data set [1]: Intrinsic clearance in rat liver microsomes. It is filed as in vitro ADME. The procedure:
(§1) Mean values for each species were calculated from 3 replicates.
(§2) Intrinsic Clearance in Rat and Human Liver Microsomes
(§3) The in vitro intrinsic clearance (CL int) was investigated in commercially obtained hepatic microsomes from rat and human donors using the substrate depletion (i.e., loss-of-parent vs. time, or t 1/2 method) approach with analyte detection via liquid chromatography-tandem mass spectrometry (LC-MS/MS). For each species, mean %parent remaining values at each time point were calculated from replicates raw data (analyte:IS peak area ratios) and used to determine in vitro t 1/2 and CLint.
(§4) Experiments were carried out using a robot-assisted (TECAN model Evo 200). Compound was incubated (1 µM final concentration) in buffer (100 mM potassium phosphate pH 7.4 with 3 mM MgCl2) containing hepatic microsomes (0.5 mg/mL final concentration) from multiple species, discretely, at 37 °C under constant orbital shaking. After 5 minutes (pre-incubation), reactions were initiated by addition of nicotinamide adenine dinucleotide phosphate (NADPH, 1 mM final concentration). At selected time intervals (0, 3, 7, 15, 25, and 45 minutes) post-addition of NADPH, aliquots (50 µL) were taken and placed into a 96-shallow-well plate containing ice cold acetonitrile (150 µL) with carbamazepine (IS, 50 nM). The plates were then centrifuged (3000 rcf at 4 °C) for 10 minutes. The supernatants were transferred to a new 96-shallow-well daughter plate and diluted (1:1 v/v) with water (Milli-Q filtered). The plates were then sealed in preparation for LC-MS/MS analysis (see below).
(§5) Raw LC-MS/MS peak area data generated from the assay samples were used to construct natural log-transformed %parent remaining vs. time plots (using t = 0 minute post-NADPH addition sample data as starting point set to 100%). In vitro compound half-life (t 1/2) values were obtained using the following […]
(§6) k is the slope from linear regression analysis of the natural log-transformed data (using means from Where all replicates at each time point). Resulting t 1/2 values were then used to calculate hepatic CLint values according to the following equation and with the use of species-specific scale-up factors for liver weight (grams) per total body weight (kg): […]
(§7) CLint = in vitro t1/2 x 0.5 mg microsomes x 1 gram liver x kg body wt aScale-up factors used are 45 (rat) and 20 (human).4
(§8) Predicted hepatic clearance (CLhep) was calculated using the following equation: […]
(§9) Qh represents hepatic blood flow (mL/min/kg): 21 for human, 70 for rat, and 90 for mouse.
(§10) Prepared samples were injected (10 µL each) onto an AB Sciex Triple Quad 4500 mass spectrometer system with an Agilent 1260 Infinity II pump and autosampler. Mass spectrometer conditions are described in Table S1. Quantitation of compounds was performed via AB Sciex Multiquant software using the raw analyte:IS peak area ratios. The typical detection range was 0.5 ng/mL to ≥ 5,000 ng/mL utilizing a quadratic equation regression with 1/x2 weighting.
(§11) Correction for dilution of all brain samples (in extraction buffer and subsequently in blank plasma, as previously described) was performed post-quantitation. The corrections for dilution in extraction buffer employed correction factors specific to each brain weight (not shown).

The test system of the next data set is Glutamate, Kainate. In words: Lead Profiling Screen, Eurofins Panlabs. It is filed as binding. The note with it: rat. An excerpt: (§12) Nonetheless, as a non-aryl/heterobiaryl acetylene mGlu5 NAM with an encouraging in vivo rodent PK profile, we wished to further assess VU6043653 as a novel chemotype. Therefore, we compared metabolites in multiple species to better understand species differences in clearance and metabolism. […] Consistent with the high plasma clearance observed in dogs, high turnover was observed more so in dog hepatocytes than any other species tested (see the Supporting Information for additional details and results). To further evaluate our novel chemotype, the off-target and safety/toxicity profiles for this compound were further investigated.
(§13) Table S2. Lead Profiling Screen – Eurofins Panlabs for VU6043653.
(§14) Assay Name Species % inh at 10 μM […]

Data set [2] has as its system GABAA, Flunitrazepam, Central. Nature of the data set: Lead Profiling Screen, Eurofins Panlabs. Format: binding. The note with it: rat.
From the text: as §12, §13, §14

Data set [3] has as its system Calcium Channel L-Type, Dihydropyridine. Nature of the data set: Lead Profiling Screen, Eurofins Panlabs. Format: binding. The note with it: rat.
From the text: as §12, §13, §14

Data set [4] in a line: Binding in brain homogenate from rat (equilibrium dialysis). It is filed as in vitro ADME. As to conditions: rat, brain homogenate, rat brain homogenates, read-out: Rat fu,brain. The procedure:
transferred to the corresponding wells of new daughter plates (96-shallow-well, V bottom) containing water (Milli-Q, 60 µL/well), and the plates were sealed in preparation for LC-MS/MS analysis (see below). fu was calculated as (analyte to IS MS peak area ratio from Trans-buffer side) / (analyte to IS MS peak area ratio from Cis-plasma side). Mean values for each species were calculated from 3 replicates.
Binding in brain homogenate from rat.
Determination of fraction unbound (f u) in brain homogenate from rat was conducted using the same methodology and procedure than described for plasma protein binding assay with the following modifications: 1) a final compound concentration of 1 μM was used, 2) naïve rat brains were homogenized in DPBS (1:3 composition of brain: DPBS, w/w) using a Mini-Bead Beater™ machine in order to obtain […]
The diluted fraction unbound (f u2) in brain was calculated as (analyte to IS MS peak area ratio from Trans-buffer side) / (analyte to IS MS peak area ratio from Cis-brain homogenate side). Undiluted fraction unbound for the brain was calculated using the following equation: […]
Mean values for each species were calculated from 3 replicates. […]

The target of data set [5] is Leukotriene, Cysteinyl CysLT1 (Homo sapiens, UniProt Q9Y271). Nature of the data set: Lead Profiling Screen, Eurofins Panlabs. Format: binding. The note with it: Cysteinyl CysLT1, hum, read-out: % inh at 10 μM.
Chain of Leukotriene, Cysteinyl CysLT1 (Q9Y271 whole entry): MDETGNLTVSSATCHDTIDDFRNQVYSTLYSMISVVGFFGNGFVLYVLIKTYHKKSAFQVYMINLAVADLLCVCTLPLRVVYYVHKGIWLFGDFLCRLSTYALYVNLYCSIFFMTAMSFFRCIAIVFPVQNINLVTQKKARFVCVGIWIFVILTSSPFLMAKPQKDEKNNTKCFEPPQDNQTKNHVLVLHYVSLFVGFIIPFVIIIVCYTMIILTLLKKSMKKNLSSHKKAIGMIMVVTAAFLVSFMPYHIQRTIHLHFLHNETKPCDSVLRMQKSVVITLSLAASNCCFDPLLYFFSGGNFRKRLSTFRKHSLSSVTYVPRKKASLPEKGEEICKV
The nature of data set [6]: Intrinsic clearance in human liver microsomes. Format: in vitro ADME. As for the experimental part:
as §1, §2, §3, §4, §5, §6, §7, §8, §9, §10, §11

A further data set concerns the target Muscarinic M2 (Homo sapiens, UniProt P08172). Nature of the data set: Lead Profiling Screen, Eurofins Panlabs. As to conditions: Muscarinic M2, hum, read-out: % inh at 10 μM. Format: binding.
Data set [7] deals with Nicotinic Acetylcholine α1, Bungarotoxin (Homo sapiens, UniProt P02708+P07510+Q07001). In words: biochemical. It is filed as binding. As to conditions: read-out: % inh at 10 μM.
Chain of Nicotinic Acetylcholine α1, Bungarotoxin (P07510 23-517): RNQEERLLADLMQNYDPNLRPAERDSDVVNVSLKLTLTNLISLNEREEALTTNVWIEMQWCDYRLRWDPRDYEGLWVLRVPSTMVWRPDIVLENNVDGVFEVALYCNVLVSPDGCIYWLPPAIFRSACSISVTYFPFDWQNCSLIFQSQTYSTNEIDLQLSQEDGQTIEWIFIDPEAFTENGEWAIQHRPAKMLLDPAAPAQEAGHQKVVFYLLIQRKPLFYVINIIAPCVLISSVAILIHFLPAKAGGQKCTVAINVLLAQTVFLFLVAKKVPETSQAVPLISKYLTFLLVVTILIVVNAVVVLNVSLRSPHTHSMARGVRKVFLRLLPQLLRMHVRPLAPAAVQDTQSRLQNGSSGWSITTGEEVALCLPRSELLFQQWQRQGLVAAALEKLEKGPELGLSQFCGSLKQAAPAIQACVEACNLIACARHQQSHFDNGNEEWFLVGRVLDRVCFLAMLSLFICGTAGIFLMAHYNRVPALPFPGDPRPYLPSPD
Chain of Nicotinic Acetylcholine α1, Bungarotoxin (P11230 24-501, further chain): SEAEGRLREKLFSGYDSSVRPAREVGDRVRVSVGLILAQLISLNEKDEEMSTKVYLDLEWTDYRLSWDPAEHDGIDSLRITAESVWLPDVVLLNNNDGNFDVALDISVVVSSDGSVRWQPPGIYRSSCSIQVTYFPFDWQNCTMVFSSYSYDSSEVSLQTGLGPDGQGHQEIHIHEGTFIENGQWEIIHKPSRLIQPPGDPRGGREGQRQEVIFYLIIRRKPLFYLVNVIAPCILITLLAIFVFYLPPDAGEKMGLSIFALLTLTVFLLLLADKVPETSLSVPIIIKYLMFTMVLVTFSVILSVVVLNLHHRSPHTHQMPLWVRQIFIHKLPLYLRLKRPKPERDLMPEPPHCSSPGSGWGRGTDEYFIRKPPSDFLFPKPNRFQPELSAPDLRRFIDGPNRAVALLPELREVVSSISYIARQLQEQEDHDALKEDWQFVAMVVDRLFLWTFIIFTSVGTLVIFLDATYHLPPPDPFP
Chain of Nicotinic Acetylcholine α1, Bungarotoxin (Q07001 22-517): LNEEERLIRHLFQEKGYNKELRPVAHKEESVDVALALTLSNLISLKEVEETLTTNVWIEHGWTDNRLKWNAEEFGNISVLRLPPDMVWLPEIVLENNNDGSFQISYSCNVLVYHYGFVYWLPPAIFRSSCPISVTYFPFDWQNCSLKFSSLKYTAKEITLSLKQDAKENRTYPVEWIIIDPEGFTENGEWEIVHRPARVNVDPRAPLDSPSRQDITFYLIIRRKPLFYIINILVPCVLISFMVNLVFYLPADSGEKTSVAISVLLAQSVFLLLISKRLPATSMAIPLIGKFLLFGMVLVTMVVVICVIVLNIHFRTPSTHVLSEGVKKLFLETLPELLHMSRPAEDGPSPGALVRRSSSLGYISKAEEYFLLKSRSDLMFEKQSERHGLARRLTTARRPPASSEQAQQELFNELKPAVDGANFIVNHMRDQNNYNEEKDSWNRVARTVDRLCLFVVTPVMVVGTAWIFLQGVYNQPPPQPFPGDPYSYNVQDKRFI
Chain of Nicotinic Acetylcholine α1, Bungarotoxin (P02708 21-457): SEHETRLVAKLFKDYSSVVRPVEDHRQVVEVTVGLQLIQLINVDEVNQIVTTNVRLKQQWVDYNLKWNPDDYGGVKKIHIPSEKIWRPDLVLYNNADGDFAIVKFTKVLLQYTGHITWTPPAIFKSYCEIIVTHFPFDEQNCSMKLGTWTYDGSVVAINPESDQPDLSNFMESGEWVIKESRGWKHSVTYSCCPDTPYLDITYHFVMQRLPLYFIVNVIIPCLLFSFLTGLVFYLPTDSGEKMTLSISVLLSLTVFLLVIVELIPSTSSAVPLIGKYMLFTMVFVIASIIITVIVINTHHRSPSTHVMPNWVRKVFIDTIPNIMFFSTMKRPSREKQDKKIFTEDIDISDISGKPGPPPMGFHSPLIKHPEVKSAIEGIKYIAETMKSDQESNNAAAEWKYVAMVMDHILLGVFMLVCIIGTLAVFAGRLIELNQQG
A further data set deals with Transporter, GABA. In words: Lead Profiling Screen, Eurofins Panlabs. Format: binding. As to conditions: rat.
A further data set deals with T1, CYP 2C9 (Homo sapiens, UniProt P11712).
T1 construct: from tissue; host or cells: pooled human liver microsomes (per the earlier reading)
T1 sequence (P11712 whole entry): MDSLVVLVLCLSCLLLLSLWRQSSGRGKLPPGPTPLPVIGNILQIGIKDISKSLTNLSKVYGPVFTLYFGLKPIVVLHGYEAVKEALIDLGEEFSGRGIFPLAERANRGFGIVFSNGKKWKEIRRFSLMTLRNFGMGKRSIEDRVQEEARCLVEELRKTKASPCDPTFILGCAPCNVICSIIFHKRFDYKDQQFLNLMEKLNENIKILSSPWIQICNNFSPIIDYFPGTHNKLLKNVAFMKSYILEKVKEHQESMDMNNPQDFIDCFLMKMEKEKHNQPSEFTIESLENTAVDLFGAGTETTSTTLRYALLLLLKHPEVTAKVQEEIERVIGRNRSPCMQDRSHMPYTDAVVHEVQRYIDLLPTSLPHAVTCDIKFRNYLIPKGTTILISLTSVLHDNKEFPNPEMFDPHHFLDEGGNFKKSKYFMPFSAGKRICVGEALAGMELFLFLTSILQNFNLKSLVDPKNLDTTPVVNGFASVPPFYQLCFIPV
Nature of the data set: P450 inhibition in pooled human liver microsomes. Format: in vitro ADME. The note with it: pooled HLM, NADPH, CYP-specific probe substrates; listed as VU6043653.

Data set [8] concerns the target Serotonin (5-Hydroxytryptamine) 5-HT2B (Homo sapiens, UniProt P41595). In words: Lead Profiling Screen, Eurofins Panlabs. As to conditions: Serotonin 5-HT2B, hum, read-out: % inh at 10 μM. It is filed as binding.
In another data set the target is Muscarinic M3 (Homo sapiens, UniProt P20309). Nature of the data set: Lead Profiling Screen, Eurofins Panlabs. As to conditions: Muscarinic M3, hum, read-out: % inh at 10 μM. It is filed as binding.
Chain of Muscarinic M3 (P20309 whole entry): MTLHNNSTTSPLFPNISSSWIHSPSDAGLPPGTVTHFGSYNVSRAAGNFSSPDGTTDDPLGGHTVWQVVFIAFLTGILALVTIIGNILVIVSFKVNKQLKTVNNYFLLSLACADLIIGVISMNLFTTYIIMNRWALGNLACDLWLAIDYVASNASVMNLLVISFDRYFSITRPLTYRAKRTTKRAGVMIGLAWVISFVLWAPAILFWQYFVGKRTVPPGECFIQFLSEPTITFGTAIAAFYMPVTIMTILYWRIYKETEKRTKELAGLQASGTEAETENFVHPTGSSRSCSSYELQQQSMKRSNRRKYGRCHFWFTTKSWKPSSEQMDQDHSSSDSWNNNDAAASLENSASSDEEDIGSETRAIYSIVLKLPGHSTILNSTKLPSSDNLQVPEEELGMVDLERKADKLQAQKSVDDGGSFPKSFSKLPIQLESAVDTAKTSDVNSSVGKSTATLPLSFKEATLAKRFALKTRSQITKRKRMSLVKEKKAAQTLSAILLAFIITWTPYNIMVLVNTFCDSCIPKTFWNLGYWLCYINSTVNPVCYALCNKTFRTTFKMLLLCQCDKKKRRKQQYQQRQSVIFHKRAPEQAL
Data set [9] has as its system Purinergic P2Y, Non-Selective. Nature of the data set: Lead Profiling Screen, Eurofins Panlabs. The note with it: rat. It is filed as binding.
The mark [10] stands for this setting: predicted hepatic clearance based on microsomal CLint.

Chain of Muscarinic M2 (P08172 whole entry): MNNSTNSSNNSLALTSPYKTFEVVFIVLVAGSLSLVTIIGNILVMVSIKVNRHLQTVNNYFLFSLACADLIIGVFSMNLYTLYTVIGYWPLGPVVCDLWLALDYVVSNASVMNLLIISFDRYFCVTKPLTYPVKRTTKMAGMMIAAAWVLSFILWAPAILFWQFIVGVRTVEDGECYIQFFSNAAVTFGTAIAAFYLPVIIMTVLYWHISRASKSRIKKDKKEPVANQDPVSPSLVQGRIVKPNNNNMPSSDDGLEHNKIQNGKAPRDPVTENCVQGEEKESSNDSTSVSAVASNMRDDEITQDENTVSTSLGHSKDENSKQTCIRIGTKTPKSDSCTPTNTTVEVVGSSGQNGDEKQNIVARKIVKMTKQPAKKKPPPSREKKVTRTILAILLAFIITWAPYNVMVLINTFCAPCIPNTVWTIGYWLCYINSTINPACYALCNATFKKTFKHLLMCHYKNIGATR
Chain of Serotonin (5-Hydroxytryptamine) 5-HT2B (P41595 whole entry): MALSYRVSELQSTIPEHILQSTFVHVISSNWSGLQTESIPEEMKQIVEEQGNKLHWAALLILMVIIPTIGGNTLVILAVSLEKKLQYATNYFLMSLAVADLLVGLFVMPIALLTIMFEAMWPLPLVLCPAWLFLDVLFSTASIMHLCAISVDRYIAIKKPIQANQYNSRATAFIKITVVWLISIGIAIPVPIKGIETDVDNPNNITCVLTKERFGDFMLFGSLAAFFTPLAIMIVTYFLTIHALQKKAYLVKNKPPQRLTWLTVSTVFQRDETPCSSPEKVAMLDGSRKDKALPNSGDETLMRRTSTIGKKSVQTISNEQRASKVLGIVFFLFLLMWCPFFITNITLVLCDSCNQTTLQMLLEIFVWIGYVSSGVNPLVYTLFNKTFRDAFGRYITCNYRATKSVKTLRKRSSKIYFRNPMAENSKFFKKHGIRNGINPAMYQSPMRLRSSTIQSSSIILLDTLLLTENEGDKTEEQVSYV

As to `Cc1cc(Oc2cnn(C)c2)cc(C(=O)Nc2ccc(F)cn2)n1` [22iA], the CLint scaled at 40 min, 1 µM amounted to 48 mL/min/kg in data set [1] (pH 7.4, rat liver microsomes) and 9 mL/min/kg in data set [6] (pH 7.4, human liver microsomes). For the same molecule, in data set [1] (setting [10]), the “CLhep, rat” value is listed as 28 mL/min/kg. Also, the “% inh at 10 μM” value with Glutamate, Kainate is on record as -7%; in data set [2], 0%; in data set [3], 1%; in the data set with Transporter, GABA it was -1%; in [9], 9%. Moreover, the fraction unbound at 6 h, 1 µM in data set [4] was 0.012. The inhibition at 10 µM was 7% in [5]; -2% at Muscarinic M2; -12% in data set [7]; 40% in data set [8]; -15% at Muscarinic M3. Moreover, in data set [6] (setting [10]), the “CLhep, human” value is on record as 6 mL/min/kg. Further, at CYP 2C9, the IC50 is at least 30 µM.
